In one assay the target is Acetylcholinesterase (Homo sapiens, UniProt P22303). Nature of the assay: Acetylcholinesterase Inhibition Assay (photometric method of Ellman et al.). In kind it is biochemical.
Assay [1] concerns Scopolamine Induced Memory Deficit. Kind of assay: Dark Avoidance Assay (reversal of scopolamine induced memory deficit). In kind it is in vivo. The conditions noted are these: mice, s.c., tested again after 24 hours. The method, then:
This utility can also be ascertained by determining the ability of these compounds to restore cholinergically deficient memory in the Dark Avoidance Assay. In this assay mice are tested for their ability to remember an unpleasant stimulus for a period of 24 hours. A mouse is placed in a chamber that contains a dark compartment; a strong incadescent light drives it to the dark compartment, where an electric shock is administered through metal plates on the floor. The animal is removed from the testing apparatus and tested again, 24 hours later, for the ability to remember the electric shock.
If scopolamine, an anticholinergic that is known to cause memory impairment, is administered before an animal's initial exposure to the test chamber, the animal re-enters the dark compartment shortly after being placed in the test chamber 24 hours later. This effect of scopolamine is blocked by an active test compound, resulting in a greater interval before re-entry into the dark compartment.
The test results are expressed as the percent of a group of animals in which the effect of scopolamine is blocked, as manifested by an increased interval between being placed in the test chamber and re-entering the dark compartment. Results of Dark Avoidance Assay for some of the compounds of this invention are presented in Table 2 along with a result for a reference compound.

[2] abbreviates: photometric method of Ellman et al., read-out: Acetylcholinesterase Inhibition IC50.

What is called IC50 is the concentration at which inhibition is half-maximal.

SMILES strings stand for the structures. Read-outs that look alike come from different tables or passages of the source.

Acetylcholinesterase, sequence (P22303 32-614): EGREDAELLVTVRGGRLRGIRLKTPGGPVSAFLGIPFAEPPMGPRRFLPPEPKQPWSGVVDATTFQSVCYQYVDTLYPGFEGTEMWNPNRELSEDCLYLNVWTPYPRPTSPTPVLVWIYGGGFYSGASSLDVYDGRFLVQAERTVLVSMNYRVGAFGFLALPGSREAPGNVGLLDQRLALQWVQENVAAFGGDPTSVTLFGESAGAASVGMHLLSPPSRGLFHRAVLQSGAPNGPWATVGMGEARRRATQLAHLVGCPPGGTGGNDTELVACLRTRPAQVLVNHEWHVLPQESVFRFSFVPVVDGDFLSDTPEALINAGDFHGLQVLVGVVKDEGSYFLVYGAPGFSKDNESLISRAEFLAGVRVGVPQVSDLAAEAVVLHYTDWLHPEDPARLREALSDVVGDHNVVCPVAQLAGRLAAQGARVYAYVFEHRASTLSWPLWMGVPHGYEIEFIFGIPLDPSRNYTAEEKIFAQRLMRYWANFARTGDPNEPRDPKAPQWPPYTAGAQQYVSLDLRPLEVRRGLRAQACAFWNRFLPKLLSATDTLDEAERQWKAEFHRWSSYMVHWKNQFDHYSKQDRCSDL

In the case of `Nc1c2c(nc3ccccc13)C1C=CC2CC1` (centres unmarked) [9-Amino-1,4-dihydro-1,4-ethanoacridine], the 50% inhibitory concentration (IC50) on Acetylcholinesterase (setting [2]) was 1.4 µM.

Take `Nc1c2c(nc3ccccc13)C1CCC2CC1` [9-Amino-1,4-ethano-1,2,3,4-tetrahydroacridine]: on Acetylcholinesterase (setting [2]), the concentration for half-maximal inhibition (IC50) came to 6.6 µM.

`Nc1c2c(nc3cc(C(F)(F)F)ccc13)C1CCC2C1` (centres unmarked) [9-Amino-1,4-methano-1,2,3,4-tetrahydro-6-trifluoromethylacridine]: the “% of Animals with Scopolamine Induced Memory Deficit Reversal” value (“% of Animals” below) in assay [1] (0.16 mg/kg of body weight) came out at 20%. The same molecule displayed a concentration for half-maximal inhibition (IC50) at Acetylcholinesterase of 4 µM.

`Nc1c2c(nc3ccccc13)C1CCC2C1` (centres unmarked) [9-Amino-1,4-methano-1,2,3,4-tetrahydroacridine]: the “% of Animals” value in assay [1] (2.5 mg/kg of body weight) turned out to be 40%.

Take `Cc1ccc2c(N)c3c(nc2c1)C1CCC3C1` (centres unmarked) [9-Amino-1,4-methano-6-methyl-1,2,3,4-tetrahydroacridine]: the “% of Animals” value in assay [1] (2.5 mg/kg of body weight) is on record as 36%. Further, at Acetylcholinesterase, 0.3 µM corresponded to half-maximal inhibition (IC50).

`Nc1c2c(nc3cc(F)ccc13)C1CCC2C1` (centres unmarked) [9-Amino-6-fluoro-1,4-methano-1,2,3,4-tetrahydroacridine]: the “% of Animals” value in assay [1] (0.63 mg/kg of body weight) is 9%. The molecule also displayed an IC50 against Acetylcholinesterase of 0.08 µM.

With `C1=CC2CCC1c1nc3ccccc3c(NCc3ccccc3)c12` (centres unmarked) [9-Benzylamino-1,4-dihydro-1,4-ethanoacridine], the half-maximal inhibitory concentration (IC50) at Acetylcholinesterase (setting [2]) came to 52 µM.

`c1ccc(CNc2c3c(nc4ccccc24)C2CCC3CC2)cc1` [9-Benzylamino-1,4-ethano-1,2,3,4-tetrahydroacridine]: the IC50 on Acetylcholinesterase (setting [2]) came to 78 µM.

As for `FC(F)(F)c1ccc2c(NCc3ccccc3)c3c(nc2c1)C1CCC3C1` (centres unmarked) [9-Benzylamino-1,4-methano-1,2,3,4-tetrahydro-6-trifluoromethylacridine], the 50% inhibitory concentration (IC50) on Acetylcholinesterase (setting [2]) was above 1000 µM.

Turning to `c1ccc(CNc2c3c(nc4ccccc24)C2CCC3C2)cc1` (centres unmarked) [9-Benzylamino-1,4-methano-1,2,3,4-tetrahydroacridine], the half-maximal inhibitory concentration (IC50) on Acetylcholinesterase (setting [2]) was above 1000 µM.

For the molecule `Cc1ccc2c(NCc3ccccc3)c3c(nc2c1)C1CCC3C1` (centres unmarked) [9-Benzylamino-1,4-methano-6-methyl-1,2,3,4-tetrahydroacridine], on Acetylcholinesterase (setting [2]), the concentration for half-maximal inhibition (IC50) was found to be 31 µM.

For the molecule `c1ccc(Nc2c3c(nc4ccccc24)C2CCC3C2)cc1` (centres unmarked) [9-Phenylamino-1,4-methano-1,2,3,4-tetrahydroacridine], the “% of Animals” value in assay [1] (0.16 mg/kg of body weight) was found to be 20%. In addition, at Acetylcholinesterase, the IC50 is above 1000 µM.

In the case of `CNC(=O)Oc1ccc2c(c1)[C@]1(C)CCN(C)[C@@H]1N2C` [Physostigmine, reference compound], the “% of Animals” value in assay [1] (0.31 mg/kg of body weight) is listed as 20%.
